# Measurements: patent publication US6492344B1, “Syndecan enhancer element and syndecan stimulation of cellular differentiation” (Biotie Therapies Corp., priority 1993, dated 2002)
# Entries after “also recorded” stand apart in the source; their conditions may differ.
# Tests used:
# [1] = system: syndecan-1 expression in 3T3 cells; experiment: Quantitation of cell surface syndecan in 3T3 cells exposed to growth factors; type: cell-based, mouse; conditions: FGF-2 administered alone
# Description: Growth factors enhance syndecan expression. NMuMG mouse mammary epithelial cells and 3T3 (NIH) mouse fibroblasts were routinely cultured in bicarbonate-buffered Dulbecco's modified Eagle's medium (DMEM; GIBCO) containing 10% FCS (GIBCO) and antibiotics, as previously described (Elenius et al., J. Biol. Chem. 265:17837-17843 (1990)). For experiments, cells were plated at equal density on culture dishes (Nunc) and grown to 60-70% confluency. Twenty-four hours before supplementing the medium with growth factor(s), the medium on the cells was replaced with fresh medium containing 2% CMS-FCS (Vogel et al., Proc. Natl. Acad. Sci. USA 75:2810-2814 (1978)). Equally treated cultures without growth factor addition served as negative controls. […] For quantitation and isolation of cell surface syndecan, media were discarded at time points indicated in the text and the cell layers were washed twice with ice cold phosphate buffered saline (PBS). […] After subsequent washes by resuspension and centrifugation the cell numbers were measured by counting the nuclei with a Coulter Counter (Coulter Electronics).
# For quantitation of syndecan intercalated into the cell membrane, syndecan ectodomain was released by incubating washed cells in 20 μg/ml bovine pancreatic trypsin (Type III; Sigma) in PBS for 10 min on ice bath. […]
# 3T3NIH cells = experiment: 125-IdU incorporation (DNA synthesis) assay in 3T3NIH cells; type: cell-based, mouse; conditions: pFiRE transfected 3T3NIH cells; 10 ng/ml growth factor (2 ng/ml TGF-β) or 5% FCS
# Excerpt: Effect of Various Growth Factors on Enhancer Activation in NIH3T3 Cells. Plasmid pFiRE was transfected into 3T3NIH cells as described, supra. The cells were starved in DMEM medium supplemented with 5% fetal calf serum to about 70% confluence. Fetal calf serum was then replaced with 2% carboxy-methyl-Sephadex eluted fetal calf serum (CMS) 12 hrs before adding the growth factors. Various growth factors in the same medium, 5% fetal calf serum (FCS) supplemented medium or a control containing the medium, without any added growth factors were incubated with the transfected cells for 2 days, and CAT activity was measured. The effect of 10 ng/ml of FGF-2, FGF-1, FGF-4, FGF-7 (KGF), EGF, IGF1, TGFα, IFNγ, and PDGF and 2 ng/ml TGF-β were tested. The human recombinant growth factors were purchased from Peprotech (FGF-1, -2, and -7), Boehringer (FGF-2) or from Calbiochem (PDGF) TGF-β was purchased from Sigma. The effect of the added growth factors and FCS on DNA synthesis was also tested by a 125-IdU incorporation assay. This cell proliferation assay was carried out by incubating cells for 4-6 hrs with 0.25 μCi/ml 5-[^125I]iodo-2′-deoxyuridine (IdU, Amersham), washed several times with PBS and solubilized in 1 M NaOH. Radioactivity was measured using a gamma counter (Wallac).
# [2] = system: FGF-inducible Response Element (FiRE); experiment: FiRE / Syn Prom CAT reporter in MCA3D keratinocytes; type: cell-based; conditions: MCA3D mouse keratinocytes transfected with FiRE construct
# Description: The cells used for proximal promoter constructs were 3T3 NIH, S115 (either hormone-treated or not) and nMuMG cells. For enhancer constructs we used 3T3 NIH cells grown in 2% CMS medium and MCA 3D cells grown in Ham's medium. 3T3 NIH cells were also used to test the effect of growth factors in 2% CMS medium with 10 ng/ml FGF-2 and 2ng/ml TGFβ-1. MCA 3D cells were used to test the effect of 10 ng/ml KGF.
# FiRE is Induced Selectively by FGF-7 in Keratinocytes. The ability of FiRE to enhance transcription was tested in the mouse keratinocyte cell line MCA3D (Kuliz-Martin et al., Carcinogenesis 4:1367-1377 (1983)). MCA3D cells were transfected as described supra for mouse NIH3T3 cells. Following transfection, the cells were treated with fetal calf serum, PDGF, FGF-1, FGF-2, and FGF-7 as described supra for the NIH3T3 cells.
substance,measurement,setting,value
FGF-2: Basic fibroblast growth factor (FGF-2 or bFGF); recombinant human,syndecan-1 expression,[1],shows enhancement of syndecan-1 expression
same,DNA synthesis / cell proliferation (125-IdU incorporation),3T3NIH cells,significant increase in DNA synthesis
same,FiRE activation,[2],failed to activate FiRE; also recorded: only slightly activated FiRE
